Here are results for 23 compounds from patent US10435399B2, “HDAC6 inhibitory heterocyclic compound” (TAKEDA PHARMACEUTICAL COMPANY LIMITED, priority 2017, dated 2019).

Each structure is given as a SMILES string.

This experiment concerns the target T1, HDAC6 enzyme (Homo sapiens, UniProt Q9UBN7).
T1 construct: transducing full length HDAC6 gene into Sf-9 insect cells; GST; purchased SignalChem; host or cells: Sf-9 insect cells
T1 sequence (Q9UBN7 1-1215): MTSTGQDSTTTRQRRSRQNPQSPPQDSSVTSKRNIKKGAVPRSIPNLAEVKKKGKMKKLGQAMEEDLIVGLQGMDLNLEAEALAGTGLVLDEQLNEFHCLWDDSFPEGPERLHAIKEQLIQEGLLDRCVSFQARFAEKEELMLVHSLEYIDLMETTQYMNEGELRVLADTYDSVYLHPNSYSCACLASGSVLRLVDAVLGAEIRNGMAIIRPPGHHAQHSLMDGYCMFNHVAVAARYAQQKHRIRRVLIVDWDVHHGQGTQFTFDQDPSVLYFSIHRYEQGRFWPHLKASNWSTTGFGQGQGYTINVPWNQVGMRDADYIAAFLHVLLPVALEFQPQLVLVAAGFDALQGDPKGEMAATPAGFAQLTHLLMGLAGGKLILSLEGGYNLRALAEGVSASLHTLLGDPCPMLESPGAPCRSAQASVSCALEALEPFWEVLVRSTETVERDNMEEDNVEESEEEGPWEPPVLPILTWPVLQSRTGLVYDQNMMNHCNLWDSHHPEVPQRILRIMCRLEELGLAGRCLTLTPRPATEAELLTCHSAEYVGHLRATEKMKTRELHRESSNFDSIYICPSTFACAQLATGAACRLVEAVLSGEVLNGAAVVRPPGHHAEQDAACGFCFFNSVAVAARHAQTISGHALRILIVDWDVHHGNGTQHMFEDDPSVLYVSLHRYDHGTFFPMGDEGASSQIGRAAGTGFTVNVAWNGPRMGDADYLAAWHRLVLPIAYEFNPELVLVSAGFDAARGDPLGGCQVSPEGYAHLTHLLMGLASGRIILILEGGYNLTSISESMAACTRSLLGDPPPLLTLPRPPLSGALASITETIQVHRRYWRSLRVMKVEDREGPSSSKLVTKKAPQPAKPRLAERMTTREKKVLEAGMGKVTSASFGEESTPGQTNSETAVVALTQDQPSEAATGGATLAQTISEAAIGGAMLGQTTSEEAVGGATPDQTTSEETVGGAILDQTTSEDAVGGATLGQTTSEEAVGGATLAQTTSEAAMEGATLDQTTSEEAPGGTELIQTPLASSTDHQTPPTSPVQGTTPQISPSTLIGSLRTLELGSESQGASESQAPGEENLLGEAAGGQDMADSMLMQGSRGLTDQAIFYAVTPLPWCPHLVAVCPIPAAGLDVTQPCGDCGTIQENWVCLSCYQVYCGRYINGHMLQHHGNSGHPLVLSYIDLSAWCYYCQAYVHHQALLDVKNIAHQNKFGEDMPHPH
The experiment can be described thus: HDAC6 enzyme inhibitory activity (HDAC-Glo I/II Assay kit). It counts as biochemical. Conditions: 10 μM; wells without enzyme = 100% inhibition; read-out: HDAC6 inhibitory rate (%) (10 μM). The essentials:
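Sf-9-derived GST-purified full-length HDAC6 + cpd, 60 min RT, 24 mM Tris pH 7.5/0.6 mM glutathione/0.01% Tween-20; add HDAC-Glo substrate-developer, 20 min RT; luminescence. No-enzyme = 100% inhibition.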
For the compound `O=C1c2cc(-c3nnc(C(F)F)o3)cnc2CN1Cc1cccc(-c2cnn(C(F)F)c2)c1` [Example 479, 3-(5-(difluoro-methyl)-1,3,4-oxadiazol-2-yl)-6-(3-(1-(difluoro-methyl)-1H-pyrazol-4-yl)benzyl)-6,7-dihydro-5H-pyrrolo[3,4-b] pyridin-5-one], the inhibition at 10 µM was 100%. Regarding `Cn1cc(C2CCC(F)(F)CC2)c(N2Cc3ccc(-c4nnc(C(F)F)o4)cc3C2=O)n1` [Example 480, 2-(4-(4,4-difluorocyclo-hexyl)-1-methyl-1H-pyrazol-3-yl)-6-(5-(difluoro-methyl)-1,3,4-oxadiazol-2-yl) isoindolin-1-one], the inhibition at 10 µM is 101%. The same measure for `Cn1cc(-c2cccc3ccnn23)c(N2Cc3ccc(-c4nnc(C(F)F)o4)cc3C2=O)n1` [Example 481, 6-(5-(difluoro-methyl)-1,3,4-oxadiazol-2-yl)-2-(1-methyl-4-(pyrazolo[1,5-a]pyridin-7-yl)-1H-pyrazol-3-yl)isoindolin-1-one]: 98%.

For the compound `O=C1c2cc(-c3nnc(C(F)F)o3)ccc2CN1c1ccc(F)cc1-n1cc(Br)cn1` [Example 482, 2-(2-(4-bromo-1H-pyrazol-1-yl)-4-fluoro-phenyl)-6-(5-(difluoro-methyl)-1,3,4-oxadiazol-2-yl) isoindolin-1-one], the inhibition at 10 µM was determined as 100%. Take `O=C1c2cc(-c3nnc(C(F)F)o3)ccc2CN1c1ccc(OC(F)(F)F)cc1Br` [Example 483, 2-(2-bromo-4-(trifluoro-methoxy)phenyl)-6-(5-(difluoro-methyl)-1,3,4-oxadiazol-2-yl) isoindolin-1-one]: the inhibition at 10 µM was found to be 91%. As for `COc1ccc(N2Cc3ccc(-c4nnc(C(F)F)o4)cc3C2=O)c(-c2ccccc2)c1` [Example 484, 6-(5-(difluoro-methyl)-1,3,4-oxadiazol-2-yl)-2-(5-methoxy-biphenyl-2-yl) isoindolin-1-one], the inhibition at 10 µM is 100%. `O=C1c2cc(-c3nnc(C(F)F)o3)ccc2CN1c1ccc(OC(F)(F)F)cc1-c1ccccc1` [Example 485, 6-(5-(difluoro-methyl)-1,3,4-oxadiazol-2-yl)-2-(5-(trifluoro-methoxy)biphenyl-2-yl) isoindolin-1-one]: the inhibition at 10 µM was 100%. The same measure for `O=C1c2cc(-c3nnc(C(F)F)o3)ccc2CN1c1ccc(F)cc1-n1cc(C2CC2)cn1` [Example 486, 2-(2-(4-cyclo-propyl-1H-pyrazol-1-yl)-4-fluorophenyl)-6-(5-(difluoro-methyl)-1,3,4-oxadiazol-2-yl) isoindolin-1-one]: 100%; for `O=C1c2cc(-c3nnc(C(F)F)o3)ccc2CN1c1ccccc1Cc1ccccc1` [Example 487, 2-(2-benzyl-phenyl)-6-(5-(difluoro-methyl)-1,3,4-oxadiazol-2-yl) isoindolin-1-one]: 99%; for `CCc1cnn(-c2cc(F)ccc2N2Cc3ccc(-c4nnc(C(F)F)o4)cc3C2=O)c1` [Example 488, 6-(5-(difluoro-methyl)-1,3,4-oxadiazol-2-yl)-2-(2-(4-ethyl-1H-pyrazol-1-yl)-4-fluoro-phenyl) isoindolin-1-one]: 100%. The same measure for `O=C1c2cc(-c3nnc(C(F)F)o3)ccc2CN1N1CCCCC1c1ccccc1` (centres unmarked) [Example 490, 6-(5-(difluoro-methyl)-1,3,4-oxadiazol-2-yl)-2-(2-phenyl-piperidin-1-yl) isoindolin-1-one]: 98%; for `O=C1c2cc(-c3nnc(C(F)F)o3)ccc2CN1N1CCCC1c1ccccc1` (centres unmarked) [Example 491, 6-(5-(difluoro-methyl)-1,3,4-oxadiazol-2-yl)-2-(2-phenyl-pyrrolidin-1-yl) isoindolin-1-one]: 99%; for `Cn1cc(N2Cc3ccc(-c4nnc(C(F)F)o4)cc3C2=O)c(Br)n1` [Example 492, 2-(3-bromo-1-methyl-1H-pyrazol-4-yl)-6-(5-(difluoro-methyl)-1,3,4-oxadiazol-2-yl) isoindolin-1-one]: 91%. The same measure for `Cn1cc(N2Cc3ccc(-c4nnc(C(F)F)o4)cc3C2=O)c(-c2ccccc2)n1` [Example 493, 6-(5-(difluoro-methyl)-1,3,4-oxadiazol-2-yl)-2-(1-methyl-3-phenyl-1H-pyrazol-4-yl) isoindolin-1-one]: 99%; for `COC(=O)N1CC[C@@H](N2Cc3ncc(-c4nnc(C(F)F)o4)cc3C2=O)[C@H](c2ccc(F)cc2)C1` [Example 494, methyl (3R,4R)-4-(3-(5-(difluoro-methyl)-1,3,4-oxadiazol-2-yl)-5-oxo-5,7-dihydro-6H-pyrrolo[3,4-b]pyridin-6-yl)-3-(4-fluoro-phenyl) piperidine-1-carboxylate]: 100%. With `N[C@@H]1CCCC(F)(F)[C@H]1N1Cc2ncc(-c3nnc(C(F)F)o3)cc2C1=O` [Example 495, 6-((1S,6R)-6-amino-2,2-difluorocyclo-hexyl)-3-(5-(difluoro-methyl)-1,3,4-oxadiazol-2-yl)-6,7-dihydro-5H-pyrrolo [3,4-b] pyridin-5-one], the inhibition at 10 µM was found to be 89%.

In the case of `CC(C)(C)OC(=O)N[C@@H]1CCCC(F)(F)[C@H]1N1Cc2ncc(-c3nnc(C(F)F)o3)cc2C1=O` [Example 496, tert-butyl ((1R,2S)-2-(3-(5-(difluoro-methyl)-1,3,4-oxadiazol-2-yl)-5-oxo-5,7-dihydro-6H-pyrrolo[3,4-b]pyridin-6-yl)-3,3-difluoro-cyclohexyl) carbamate], the inhibition at 10 µM worked out at 100%.

In the case of `O=C1c2cc(-c3nnc(C(F)F)o3)cnc2CN1[C@H]1[C@H](NC(=O)C(F)(F)C(F)(F)F)CCCC1(F)F` [Example 497, N-((1R,2S)-2-(3-(5-(difluoro-methyl)-1,3,4-oxadiazol-2-yl)-5-oxo-5,7-dihydro-6H-pyrrolo[3,4-b]pyridin-6-yl)-3,3-difluoro-cyclohexyl)-2,2,3,3,3-pentafluoro-propanamide], the inhibition at 10 µM is 101%. As for `O=C(C1CC1)N1CC[C@@H](N2Cc3ncc(-c4nnc(C(F)F)o4)cc3C2=O)[C@H](c2ccc(F)cc2)C1` [Example 498, 6-((3R,4R)-1-(cyclopropyl-carbonyl)-3-(4-fluorophenyl)piperidin-4-yl)-3-(5-(difluoro-methyl)-1,3,4-oxadiazol-2-yl)-6,7-dihydro-5H-pyrrolo [3,4-b]pyridin-5-one], the inhibition at 10 µM stood at 100%. Regarding `COC(=O)N1CC[C@@H](N2Cc3ncc(-c4nnc(C(F)F)o4)cc3C2=O)[C@H](c2ccc(F)c(F)c2)C1` [Example 499, methyl (3R,4R)-4-(3-(5-(difluoro-methyl)-1,3,4-oxadiazol-2-yl)-5-oxo-5,7-dihydro-6H-pyrrolo[3,4-b]pyridin-6-yl)-3-(3,4-difluoro-phenyl) piperidine-1-carboxylate], the inhibition at 10 µM came to 99%. On to `CC(F)(F)C(=O)N[C@@H]1CCCC(F)(F)[C@H]1N1Cc2ncc(-c3nnc(C(F)F)o3)cc2C1=O` [Example 500, N-((1R,2S)-2-(3-(5-(difluoro-methyl)-1,3,4-oxadiazol-2-yl)-5-oxo-5,7-dihydro-6H-pyrrolo[3,4-b]pyridin-6-yl)-3,3-difluoro-cyclohexyl)-2,2-difluoro-propanamide], for which the inhibition at 10 µM was found to be 99%. `O=C1c2cc(-c3nnc(C(F)F)o3)ccc2CN1N1CCOCC1c1ccccc1` (centres unmarked) [Example 501, 6-(5-(difluoro-methyl)-1,3,4-oxadiazol-2-yl)-2-(3-phenyl-morpholin-4-yl) isoindolin-1-one]: the inhibition at 10 µM was 98%. The same measure for `O=C1c2cc(-c3nnc(C(F)F)o3)cnc2CN1[C@@H]1CCCC[C@H]1n1cnc2ccccc21` [Example 502, 6-((1R,2R)-2-(1H-benzimidazol-1-yl)cyclohexyl)-3-(5-(difluoromethyl)-1,3,4-oxadiazol-2-yl)-6,7-dihydro-5H-pyrrolo[3,4-b]pyridin-5-one]: 100%.
